Reference: patent US6787670B1, “Glyoxyl acid amides, method for producing them and their use for controlling harmful organisms” (priority 1999, dated 2004)

Test system: Phytophthora infestans
Assay: whole plant or invertebrate
Type: in vivo
Conditions: Phytophthora infestans, in Solanum lycopersicum, 72 h, read-out: efficacy in %, tomato plants, protective spray, application rate 50 g/ha, evaluation 3 days after inoculation; 100% = no infection

SMILES | pest or weed control at 50 g/ha [%]
C=CCOc1ccc(CCNC(=O)/C(=N\OC)c2ccc3c(c2)CCCC3)cc1OC [Example 57] | 99
CCC(=O)COc1ccc(CCNC(=O)/C(=N\OC)c2ccc3c(c2)CCCC3)cc1OC [Example 60] | 89
CCc1ccc(/C(=N/OC)C(=O)NCCc2ccc(OC(C)C)c(OC)c2)cc1 [Example 60] | ≥ 89
CCCOc1ccc(CCNC(=O)/C(=N\OC)c2ccc(Br)cc2)cc1OC [Example 61] | 94
CO/N=C(\C(=O)NCCc1ccc(OC(C)C)c(OC)c1)c1ccc2c(c1)CCCC2 [Example 61] | ≥ 89
CCC(C)Oc1ccc(CCNC(=O)/C(=N\OC)c2ccc(Cl)cc2)cc1OC (stereo not shown) [Example 62] | 89
CCC(C)Oc1ccc(CCNC(=O)/C(=N\OC)c2ccc3c(c2)CCC3)cc1OC (stereo not shown) [Example 65] | 94
CO/N=C(\C(=O)NCCc1ccc(OC(C)C)c(OC)c1)c1ccc(C)cc1 [Example 107] | 95
COCCOc1ccc(CCNC(=O)/C(=N/OC)c2ccc3c(c2)CCCC3)cc1OC [Example 107] | ≥ 89
C=CCOc1ccc(CCNC(=O)/C(=N\OC)c2ccc(Br)cc2)cc1OC [Example 115] | ≥ 89
CO/N=C(\C(=O)NCCc1ccc(OC(C)C)c(OC)c1)c1ccc2c(c1)CCC2 [Example 115] | 94

Same assay, conditions: tomato plants, protective spray, application rate 50 g/ha, evaluation 3 days after inoculation; 100% = no infection

SMILES | efficacy in % [%]
COCCOc1ccc(CCNC(=O)/C(=N/OC)c2ccc3c(c2)CCCC3)cc1OC [Example 3] | 92
C=CCOc1ccc(CCNC(=O)/C(=N\OC)c2ccc(Br)cc2)cc1OC [Example 52] | 100
CCc1ccc(/C(=N/OC)C(=O)NCCc2ccc(OC(C)C)c(OC)c2)cc1 [Example 113] | 94

Same assay, conditions: tomato plants, protective spray, application rate 50 g/ha, evaluation 3 days after inoculation; 100% = no infection; listed as drawing 53

SMILES | efficacy in % [%]
CO/N=C(\C(=O)NCCc1ccc(OC(C)C)c(OC)c1)c1ccc2c(c1)CCCC2 [Example 63] | 94

Same assay, conditions: tomato plants, protective spray, application rate 50 g/ha, evaluation 3 days after inoculation; 100% = no infection; listed as drawing 58

SMILES | efficacy in % [%]
CO/N=C(\C(=O)NCCc1ccc(OC(C)C)c(OC)c1)c1ccc2c(c1)CCCC2 [Example 116] | 94

Test system: Plasmopara viticola
Assay: Plasmopara test (grapevine)/protective
Type: in vivo
Conditions: 144 h, grapevine plants, protective spray, application rate 50 g/ha, evaluation 6 days after inoculation, 100% = no infection, read-out: efficacy in %

SMILES | pest or weed control at 50 g/ha [%]
COCCOc1ccc(CCNC(=O)/C(=N\OC)c2ccc(Cl)cc2)cc1OC [Example 60] | 96
CCC(=O)COc1ccc(CCNC(=O)/C(=N\OC)c2ccc3c(c2)CCCC3)cc1OC [Example 100] | 94
CCC(C)Oc1ccc(CCNC(=O)/C(=N\OC)c2ccc(Cl)cc2)cc1OC (stereo not shown) [Example 111] | 83
CCC(C)Oc1ccc(CCNC(=O)/C(=N\OC)c2ccc3c(c2)CCC3)cc1OC (stereo not shown) [Example 113] | 94
CO/N=C(\C(=O)NCCc1ccc(OC(C)C)c(OC)c1)c1ccc2c(c1)CCC2 [Example 116] | 100

Same assay, conditions: 144 h, read-out: efficacy in %

SMILES | pest or weed control at 50 g/ha [%]
CCOc1cc(CCNC(=O)/C(=N\OC)c2ccc3c(c2)CCCC3)ccc1OC [Example 52] | 93
C=CCOc1ccc(CCNC(=O)/C(=N\OC)c2ccc(Br)cc2)cc1OC [Example 63] | 99
COCCOc1ccc(CCNC(=O)/C(=N\OC)c2ccc3c(c2)CCCC3)cc1OC [Example 65] | 93
CCc1ccc(/C(=N/OC)C(=O)NCCc2ccc(OC(C)C)c(OC)c2)cc1 [Example 115] | 87

Same assay, conditions: 144 h, read-out: efficacy in %, grapevine plants, protective spray, application rate 50 g/ha, evaluation 6 days after inoculation, 100% = no infection

SMILES | pest or weed control at 50 g/ha [%]
CCc1ccc(/C(=N/OC)C(=O)NCCc2ccc(OC(C)C)c(OC)c2)cc1 [Example 60] | ≥ 83
CCOc1cc(CCNC(=O)/C(=N\OC)c2ccc3c(c2)CCCC3)ccc1OC [Example 100] | ≥ 83
C=CCOc1ccc(CCNC(=O)/C(=N\OC)c2ccc(Br)cc2)cc1OC [Example 115] | ≥ 83

Test system: Alternaria solani
Assay: Alternaria test (tomato)/protective
Type: in vivo
Conditions: tomato plants, protective spray, application rate 750 g/ha, evaluation 3 days after inoculation; 100% = no infection
Protocol: Alternaria Test (Tomato)/Protective
Solvent: 50 parts by weight of N,N-dimethylformamide
Emulsifier: 1.2 parts by weight of alkylaryl polyglycol ether
One day after the treatment, the plants are inoculated with a spore suspension of Alternaria solani. The plants then stand at 100% rel. atmospheric humidity and a temperature of 20° C.
Evaluation is carried out 3 days after the inoculation.

SMILES | efficacy in % [%]
CO/N=C(\C(=O)NCCc1ccc(OCC(C)C)c(OC)c1)c1ccc2c(c1)CCCC2 [Example 45] | 95
CCCCOc1ccc(CCNC(=O)/C(=N\OC)c2ccc3c(c2)CCCC3)cc1OC [Example 48] | 95
CO/N=C(\C(=O)NCCc1ccc(OCC(C)C)c(OC)c1)c1ccc2c(c1)CCCC2 [Example 49] | 90
